Data published in patent US20090148883A1, “BIOMARKER FOR ASSESSING RESPONSE TO FMS TREATMENT” (priority 2007, published 2009).
Several values for one entry are separate records, joined by “and”; a condition that tells them apart may be missing. Equal entries are not always repeated. Where two headings read alike, the source gives them in different places. Marks after values point to notes of the source that are not given here.

What was measured:
[1] = Tolerability in rats, Example 2; type: in vivo; settings: 5 or 15 mg/kg COMPOUND 2 or 40 mg/kg COMPOUND 1, po bid, 5 consecutive days
Experimental: Groups of female Sprague Dawley rats (n=5) were orally administered 5 or 15 mg/kg of COMPOUND 2 or 40 mg/kg COMPOUND 1 twice per day for 5 consecutive days to characterize compound tolerability. Additional groups of rats, treated with vehicle or 40 mg/kg COMPOUND 1, were terminated one hour after the a.m. dose on Days 1 and 3 for interim analysis of various parameters. Post-mortem analysis of all treated animals included standard necropsy with liver histology evaluation as well as standard hematology and serology. None of the animals were found dead or were euthanized (moribund) prior to scheduled termination. None of the treatments affected body weight or the organ:body weight ratio of selected organs (i.e., liver, thymus, spleen & uterus). […] Both compounds, at the highest dose tested, decreased the number of macrophages in the uterus (up to ˜60% for COMPOUND 2) on Day 5 however, this parameter was highly variable. […]
On Days 1 & 3, one hour after a.m. dose, five rats from Groups 1 and 4 were euthanized using CO2 asphyxiation and exsanguinated via cardiac puncture. […] The macrophage content of the uterus was determined immunohistochemically using a macrophage-specific (ED-1) antibody. […]

[2] = test system: ED-1 positive macrophages in the uterus; experiment: Macrophage content of the uterus (ED-1 immunohistochemistry) in rats, Example 2; type: in vivo, rat; settings: Day 5
Experimental: (§1) Groups of female Sprague Dawley rats (n=5) were orally administered 5 or 15 mg/kg of COMPOUND 2 or 40 mg/kg COMPOUND 1 twice per day for 5 consecutive days to characterize compound tolerability. Additional groups of rats, treated with vehicle or 40 mg/kg COMPOUND 1, were terminated one hour after the a.m. dose on Days 1 and 3 for interim analysis of various parameters. Post-mortem analysis of all treated animals included standard necropsy with liver histology evaluation as well as standard hematology and serology. None of the animals were found dead or were euthanized (moribund) prior to scheduled termination. None of the treatments affected body weight or the organ:body weight ratio of selected organs (i.e., liver, thymus, spleen & uterus). […] Both compounds, at the highest dose tested, decreased the number of macrophages in the uterus (up to ˜60% for COMPOUND 2) on Day 5 however, this parameter was highly variable.
(§2) On Days 1 & 3, one hour after a.m. dose, five rats from Groups 1 and 4 were euthanized using CO2 asphyxiation and exsanguinated via cardiac puncture. Blood samples (˜500 μL) were transferred to separate ethylenediaminetetraacetic acid (EDTA) microtainers and a complete blood count (CBC) was conducted using the Advia 120 Hematology System (Bayer Diagnostics, Tarrytown, N.Y.). Additional blood samples were transferred to separate microtainers (with or without anticoagulant) and processed for biomarker (i.e., MCSF-1) and serologic (i.e., AST/ALT) analysis. The liver and thymus were weighed and discarded. The spleens were weighed and zap-frozen and the uteri (without ovaries attached) were weighed and fixed in 10% buffered formalin. The macrophage content of the uterus was determined immunohistochemically using a macrophage-specific (ED-1) antibody.
On Day 5, rats were euthanized using carbon dioxide and exsanguinated via cardiac puncture. […]
Differences between treated and control groups were analyzed statistically by ANOVA with a Dunnett's Multiple Comparison post-test. […]

CSF-1 [3] = experiment: Plasma CSF-1 biomarker in rats, Example 2 (po bid 5 days); type: in vivo, rat; settings: 5 mg/kg po bid, 5 consecutive days
Experimental: as §1
On Day 0, the rats were ear tagged, randomized into the treatment groups (Groups 1 & 4: n=15, Groups 2 & 3: n=5), weighed and treated (po, bid) with either vehicle (20% HPbCD) or the test articles as delineated in Table 2 (Allocation of Treatment Groups).
as §2
On Day 5, rats were euthanized using carbon dioxide and exsanguinated via cardiac puncture. Blood samples (˜500 μL) were collected and processed as described above for CBC, biomarker analysis and serology. The liver, spleen, thymus and uterus (without ovaries attached) were isolated, weighed and fixed in buffered formalin. The right knee with femur attached was isolated, trimmed and fixed in formalin. The left femur was isolated for determination of bone marrow cell counts. Liver histopathology was also conducted.
Differences between treated and control groups were analyzed statistically by ANOVA with a Dunnett's Multiple Comparison post-test. (p value; *:<0.05, **:<0.01).

CSF-1 [4] = experiment: Plasma CSF-1 in rats dosed 4 days, Examples 3 and 4 (mouse CSF-1 ELISA); type: in vivo, rat; settings: for CSF-1 levels elevated: vs vehicle; for CSF-1, pg/ml, Mean (SEM) / Plasma CSF-1, pg/ml, Mean: group mean; for CSF-1, pg/ml, Mean (SEM) / CSF-1, pg/ml (plasma): vehicle mean 127; for CSF-1, pg/ml (plasma) / Plasma CSF-1, pg/ml: individual animals; for Plasma CSF-1, pg/ml, Mean / Plasma CSF-1, pg/ml: vehicle mean 124
Experimental: (§3) Pharmacodynamic activity in rats was determined to identify appropriate doses for efficacy studies. Circulating CSF-1 is cleared by sinusoidal macrophages when bound and internalized by FMS in a process that is partly dependent on FMS kinase activity. CSF-1 levels rise when FMS is inhibited, or when FMS inhibition reduces the number/function of macrophages. Uterine macrophages are short-lived and FMS-dependent. Quantitation of uterine macrophage density and plasma CSF-1 levels thereby provided pharmacodynamic endpoints measurable in rats following 4 days of dosing.
(§4) […] On the fifth day, a final dose was given and the animals were sacrificed 2 hrs later. Rats were euthanized using CO2 asphyxiation and exsanguinated via cardiac puncture. An aliquot of blood ([…]) was transferred to an EDTA tube and processed for plasma and for determination of plasma compound and CSF-1 biomarker levels.

uterine macrophages = experiment: Uterine ED1 stained area (uterine macrophage density) in rats dosed 4 days, Examples 3 and 4; type: in vivo, rat; settings: for Uterine macrophages depleted: vs vehicle; for Uterine ED1 area/HPF, Mean (SEM) / Uterine ED1 area/HPF, Mean: group mean; for Uterine ED1 area/HPF: individual animals
Experimental: as §3, §4
Spleens, livers and uteri (without ovaries) were isolated and weighed and uteri were fixed in formalin. Uteri sections were stained for ED1 and ED-1 stained area (arbitrary units) at 200× magnification was determined using Image-Pro Plus software.

[5] = Plasma compound levels in rats dosed 4 days, Examples 3 and 4; type: in vivo, rat; settings: 2 hrs after final dose, individual animals; for concentration at 2 h: female, Sprague Dawley, rat, plasma, oral
Experimental: Method: Female Sprague Dawley Rats (150 to 200 g BW) from Charles River were administered vehicle or COMPOUND 3 at 10 and 40 mg/kg p.o. bid for 4 days. On the fifth day, a final dose was given and the animals were sacrificed 2 hrs later. Rats were euthanized using CO2 asphyxiation and exsanguinated via cardiac puncture. An aliquot of blood ([…]) was transferred to an EDTA tube and processed for plasma and for determination of plasma compound and CSF-1 biomarker levels.

[6] = as above; type: in vivo, rat; settings: for concentration at 2 h: rat, plasma
[7] = 10 mg/kg p.o. bid 4 days, vehicle mean 9808
[8] = 40 mg/kg p.o. bid 4 days, vehicle mean 9808
[9] = 10 mpk, dosed 4 days, vehicle mean 2057
[10] = 20 mpk, dosed 4 days, vehicle mean 2057
[11] = 50 mpk, dosed 4 days, vehicle mean 2057

Cc1ncc(-c2c(C3=CCCCC3)c3cc(C#N)ccc3[nH]c2=O)[nH]1 [COMPOUND 2]
Effect on appearance, behavior, body weight or organ:body weight ratio (liver, spleen, thymus) [1]: did not have an observable effect
Effect on macrophage content of the uterus ([2]; highest dose tested (COMPOUND 2 15 mg/kg, COMPOUND 1 40 mg/kg po bid), highly variable): significant effect
Decrease in number of ED-1 positive macrophages per field in the uterus ([2]; up to, dose dependent (5 and 15 mg/kg po bid)): ~60%
Effect on plasma concentrations of CSF-1 (CSF-1 [3]): failed to significantly affect plasma concentrations of CSF-1

CONC(=O)c1cn(-c2ccc3c(c2)CCC3)c2nc(Nc3ccc(C4CCN(C)CC4)cc3)ncc2c1=O [COMPOUND 3]
CSF-1 levels elevated (CSF-1 [4]; 10 mg/kg p.o. bid 4 days): 4.5 fold
CSF-1, pg/ml, Mean (SEM) (CSF-1 [4]; 10 mg/kg p.o. bid 4 days): 570 pg/mL
CSF-1, pg/ml (plasma) (CSF-1 [4]; 10 mg/kg p.o. bid 4 days): 651 pg/mL and 482 pg/mL and 577 pg/mL
CSF-1 levels elevated (CSF-1 [4]; 40 mg/kg p.o. bid 4 days): 5.5 fold
CSF-1, pg/ml, Mean (SEM) (CSF-1 [4]; 40 mg/kg p.o. bid 4 days): 698 pg/mL
CSF-1, pg/ml (plasma) (CSF-1 [4]; 40 mg/kg p.o. bid 4 days): 548 pg/mL and 746 pg/mL and 801 pg/mL
Uterine macrophages depleted (uterine macrophages; 10 mg/kg p.o. bid 4 days): 51%
Uterine ED1 area/HPF, Mean (SEM) (uterine macrophages; [7]): 4855 arbitrary units
Uterine ED1 area/HPF (uterine macrophages; [7]): 4919 arbitrary units and 7609 arbitrary units and 2037 arbitrary units
Morphology of uterine macrophages (ED-1 staining) (uterine macrophages; 40 mg/kg p.o. bid 4 days): did not have the normal reticulated morphology
Uterine macrophages depleted (uterine macrophages; 40 mg/kg p.o. bid 4 days): 81%
Uterine ED1 area/HPF, Mean (SEM) (uterine macrophages; [8]): 1836 arbitrary units
Uterine ED1 area/HPF (uterine macrophages; [8]): 929 arbitrary units and 1721 arbitrary units and 2858 arbitrary units
Compound, ng/ml (plasma) ([5]; 10 mg/kg p.o. bid 4 days): 2080 ng/mL and 2800 ng/mL
Compound, ng/ml (plasma) ([5]; 40 mg/kg p.o. bid 4 days): 5060 ng/mL and 5730 ng/mL
concentration at 2 h ([5]; 10 mg/kg, 10 mg/kg p.o. bid 4 days): 2.73 µg/mL
concentration at 2 h ([5]; 40 mg/kg, 40 mg/kg p.o. bid 4 days): 5.32 µg/mL
concentration at 2 h ([6]; female, Sprague Dawley, oral, 10 mg/kg, 10 mg/kg p.o. bid 4 days, 2 hrs after final dose, group mean, read-out: Compound, ng/ml, Mean (SEM)): 2540 ng/mL
concentration at 2 h ([6]; female, Sprague Dawley, oral, 40 mg/kg, 40 mg/kg p.o. bid 4 days, 2 hrs after final dose, group mean, read-out: Compound, ng/ml, Mean (SEM)): 5370 ng/mL

CC1(C)CC=C(c2nc(C3CC(C)(C)OC(C)(C)C3)ccc2NC(=O)c2ncc(C#N)[nH]2)CC1 [COMPOUND 4]
CSF-1 levels elevated (CSF-1 [4]; 10 mpk, dosed 4 days): 28%
Plasma CSF-1, pg/ml, Mean (CSF-1 [4]; 10 mpk, dosed 4 days, p < 0.05 vs. Vehicle): 159* pg/ml
Plasma CSF-1, pg/ml (CSF-1 [4]; 10 mpk, dosed 4 days): 152 pg/mL and 165 pg/mL and 139 pg/mL and 157 pg/mL and 184 pg/mL
CSF-1 levels elevated (CSF-1 [4]; 20 mpk, dosed 4 days): 79%
Plasma CSF-1, pg/ml, Mean (CSF-1 [4]; 20 mpk, dosed 4 days, p < 0.005 vs. Vehicle): 211** pg/ml
Plasma CSF-1, pg/ml (CSF-1 [4]; 20 mpk, dosed 4 days): 211 pg/mL and 163 pg/mL and 196 pg/mL and 238 pg/mL and 249 pg/mL
CSF-1 levels elevated (CSF-1 [4]; 50 mpk, dosed 4 days): 363%
Plasma CSF-1, pg/ml, Mean (CSF-1 [4]; 50 mpk, dosed 4 days, p < 0.005 vs. Vehicle): 574** pg/ml
Plasma CSF-1, pg/ml (CSF-1 [4]; 50 mpk, dosed 4 days): 540 pg/mL and 696 pg/mL and 506 pg/mL and 585 pg/mL and 541 pg/mL
Dose with a threshold level of activity for CSF-1 elevation and uterine macrophage depletion (CSF-1 [4]; rats dosed 4 days): 10 mg/kg
Uterine macrophages depleted (uterine macrophages; 10 mpk, dosed 4 days): 27%
Uterine ED1 area/HPF, Mean (uterine macrophages; [9]): 1501 arbitrary units
Uterine ED1 area/HPF (uterine macrophages; [9]): 1003 arbitrary units and 1233 arbitrary units and 1174 arbitrary units and 1021 arbitrary units and 3075 arbitrary units
Uterine macrophages depleted (uterine macrophages; 20 mpk, dosed 4 days): 28%
Uterine ED1 area/HPF, Mean (uterine macrophages; [10]): 1476 arbitrary units
Uterine ED1 area/HPF (uterine macrophages; [10]): 1419 arbitrary units and 1995 arbitrary units and 1164 arbitrary units and 1560 arbitrary units and 1244 arbitrary units
Uterine macrophages depleted (uterine macrophages; 50 mpk, dosed 4 days): 44%
Uterine ED1 area/HPF, Mean (uterine macrophages; [11]): 1149 arbitrary units
Uterine ED1 area/HPF (uterine macrophages; [11]): 681 arbitrary units and 1431 arbitrary units and 2955 arbitrary units and 585 arbitrary units and 94 arbitrary units
Plasma compound, ng/ml, Mean ([6]; 10 mpk, dosed 4 days, 2 hours after last dose, group mean): 1414 (186) ng/ml
Plasma compound ([6]; 10 mpk, dosed 4 days, 2 hours after last dose, individual animals): 968 ng/mL and 1560 ng/mL and 1790 ng/mL and 1680 ng/mL
Plasma compound, ng/ml, Mean ([6]; 20 mpk, dosed 4 days, 2 hours after last dose, group mean): 2636 (172) ng/ml
Plasma compound ([6]; 20 mpk, dosed 4 days, 2 hours after last dose, individual animals): 2670 ng/mL and 2320 ng/mL and 2470 ng/mL and 3210 ng/mL
Plasma compound, ng/ml, Mean ([6]; 50 mpk, dosed 4 days, 2 hours after last dose, group mean): 6612 (881) ng/ml
Plasma compound ([6]; 50 mpk, dosed 4 days, 2 hours after last dose, individual animals): 6090 ng/mL and 4800 ng/mL and 9390 ng/mL and 7110 ng/mL
concentration at 2 h ([6]; 10 mpk, dosed 4 days, 2 hours after last dose, group mean, read-out: Plasma compound, ng/ml, Mean): 1410 ng/mL
concentration at 2 h ([6]; 10 mpk, dosed 4 days, 2 hours after last dose, individual animals, read-out: Plasma compound): 1070 ng/mL
concentration at 2 h ([6]; 20 mpk, dosed 4 days, 2 hours after last dose, individual animals, read-out: Plasma compound): 2510 ng/mL
concentration at 2 h ([6]; 50 mpk, dosed 4 days, 2 hours after last dose, group mean, read-out: Plasma compound, ng/ml, Mean): 6610 ng/mL
concentration at 2 h ([6]; 50 mpk, dosed 4 days, 2 hours after last dose, individual animals, read-out: Plasma compound): 5670 ng/mL
concentration at 2 h ([6]; dosed 4 days, 2 hours after last dose, group mean, read-out: Plasma compound, ng/ml, Mean): 2640 ng/mL
